# Legend:
# [1] = target: T1, Thymidylate synthase (Lactobacillus casei) (UniProt P00469); test: Binding of 0.1 mM [14C]5,10-CH2-H4 folate to 2.5 nmol dTMP synthetase from Lactobacillus casei; conditions: Lacticaseibacillus casei
# T1 sequence (whole entry): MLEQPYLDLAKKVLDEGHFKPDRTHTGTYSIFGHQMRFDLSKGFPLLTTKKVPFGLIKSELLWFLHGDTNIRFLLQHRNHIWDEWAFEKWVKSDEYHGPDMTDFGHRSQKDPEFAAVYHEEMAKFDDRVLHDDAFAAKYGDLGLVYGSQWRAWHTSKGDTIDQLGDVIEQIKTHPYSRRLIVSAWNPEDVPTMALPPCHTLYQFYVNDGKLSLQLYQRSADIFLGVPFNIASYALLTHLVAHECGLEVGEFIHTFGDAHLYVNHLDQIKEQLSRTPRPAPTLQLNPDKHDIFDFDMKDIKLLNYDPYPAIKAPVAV
# Thymidylate synthase = target: T2, Thymidylate synthase (Lactobacillus casei, UniProt P00469); test: The compound was tested for inhibition of dTMP synthetase from Lactobacillus casei; design: species or system Lacticaseibacillus casei
# T2 sequence (P00469 whole entry): T1 sequence (whole entry)
dpm bound to protein [1],Ki (Thymidylate synthase) [µM],SMILES
15500,,O=c1[nH]c(=O)n([C@H]2C[C@H](O)[C@@H](COP(=O)(O)O)O2)cc1F
1110,2.7,C#Cc1cn([C@H]2C[C@H](O)[C@@H](COP(=O)(O)O)O2)c(=O)[nH]c1=O
